Experiment: xn = mol fraction of the nth substance listed
Conditions: 100 kPa

C[N+](C)(C)CCC[n+]1ccccc1.N#C[N-]C#N.N#C[N-]C#N + CO
viscosity [mPa·s]
Conditions	x1 = 0.0999	x1 = 0.2001	x1 = 0.3002	x1 = 0.3999	x1 = 0.5002	x1 = 0.6001	x1 = 0.7003	x1 = 0.7998	x1 = 0.8995	x1 = 1
293.15 K	4.37	14.9	32.5	–	117	233	343	508	–	2191
303.15 K	3.66	11.4	23.1	45.9	–	131	–	255	396	830
313.15 K	–	9.01	17.4	–	–	81.1	110	–	198	–
323.15 K	2.82	7.36	–	–	–	–	70.6	90.5	116	210
333.15 K	–	–	11.4	–	28	–	49.3	60.6	76	127

CO + C[N+](C)(C)CCC[N+]1(C)CCCCC1.N#C[N-]C#N.N#C[N-]C#N
x2 = 0
Conditions	viscosity [mPa·s]
303.15 K	0.508
313.15 K	0.446
333.15 K	0.352

C[N+](C)(C)CCC[N+]1(C)CCCCC1.N#C[N-]C#N.N#C[N-]C#N + CO
viscosity [mPa·s]
Conditions	x1 = 0.0999	x1 = 0.2001	x1 = 0.3002	x1 = 0.3999	x1 = 0.5002	x1 = 0.6001	x1 = 0.7003	x1 = 0.7998	x1 = 0.8995	x1 = 1
293.15 K	4.25	14.7	39.6	109	–	–	1181	1884	2855	4503
303.15 K	3.58	–	–	70.3	–	330	610	920	1281	1837
313.15 K	3.09	8.9	20.3	46.7	100	203	337	489	646	860
323.15 K	–	7.22	–	33.8	68	130	206	292	369	460
333.15 K	2.46	6	12.5	–	48.4	88.2	134	187	236	270

CO + C[N+](C)(C)CCC[n+]1ccccc1.N#C[N-]C#N.N#C[N-]C#N
x2 = 0
Conditions	viscosity [mPa·s]
293.15 K	0.584
303.15 K	0.508
313.15 K	0.446
323.15 K	0.395
333.15 K	0.352
